Results taken from patent publication US7026339B2, “Inhibitors of HCV NS5B polymerase” (priority 2003, dated 2006).

test system: HuH-7 replicon cells 5–15 and 9–13 (HCV replication); assay: Inhibition of viral replication in HuH-7 replicon cells (HCV RNA / GAPDH RNA by multiplex RT-PCR); format: cell-based; conditions: Hepatitis C virus, 72 h; inhibiting 50% of replication; HuH-7 replicon cells, 3 days; read-out: IC50
Procedure, shortened: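 HCV and GAPDH RNA were measured by multiplex TaqMan RT-PCR (HCV 5′ untranslated region) after 3-day compound treatment at 37 °C, final 100 μM–1 μM in 1% DMSO. Cells were plated 24 h beforehand at 7×10^3/well. Read-out: HCV-to-GAPDH ratio expressed as percent control versus untreated cells.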

First: COc1cccc(CCC(=O)N/N=C/c2ccccc2OS(=O)(=O)c2ccc(C(F)(F)F)cc2)c1 [Compound 58, 2-((E)-{2-[3-(3-methoxyphenyl)propanoyl]hydrazono}-methyl)phenyl 4-(trifluoromethyl)benzenesulfonate]
Second: O=C(CCc1ccccc1)N/N=C/c1ccccc1OS(=O)(=O)c1ccc(C(F)(F)F)cc1 [Compound 2, 2-{(E)-[2-(3-phenylpropanoyl)-hydrazono]methyl}phenyl 4-(trifluoromethyl)benzenesulfonate]
The IC50 of the first is higher: greater than 50 µM for the first, less than 5 µM for the second. The second is the more potent here.

`Cc1ccc(OS(=O)(=O)c2ccc(C(F)(F)F)cc2)c(/C=N/NC(=O)Cc2cccc(Cl)c2)c1` [Compound 175, 2-((E)-{[(3-chlorophenyl)acetyl]hydrazono}methyl)-4-methylphenyl 4-(trifluoromethyl)benzenesulfonate] and `O=C(Cc1cccc(Cl)c1)N/N=C/c1cc(F)ccc1OS(=O)(=O)c1ccc(C(F)(F)F)cc1` [Compound 176, 2-((E)-{[(3-chlorophenyl)acetyl]hydrazono}methyl)-4-fluorophenyl 4-(trifluoromethyl)benzenesulfonate] cannot be ordered by IC50: less than 5 µM for the first, less than 5 µM for the second.

`O=C(Cc1ccccc1)N/N=C/c1ccccc1OS(=O)(=O)c1cc(Cl)ccc1Cl` [Compound 139, 2-{(E)-[2-(2-phenylacetyl)hydrazono]methyl}phenyl2,5-dichlorobenzenesulfonate] and `Cc1cccc(S(=O)(=O)Oc2ccccc2/C=N/NC(=O)Cc2ccccc2)c1` [Compound 111, 2-{(E)-[2-(2-phenylacetyl)hydrazono]methyl}phenyl 3-methylbenzenesulfonate] cannot be ordered by IC50: greater than 50 µM for the first, greater than 50 µM for the second.

`COc1cccc(CC(=O)N/N=C/c2c(F)cccc2OS(=O)(=O)c2ccc(C)cc2)c1` [Compound 208, 3-fluoro-2-((E)-{[(3-methoxyphenyl)acetyl]hydrazono}methyl)-phenyl 4-methylbenzenesulfonate] and `COc1cccc(CC(=O)N/N=C/c2c(OS(=O)(=O)c3ccc(C)cc3)ccc3ccccc23)c1` [Compound 162, 1-((E)-{2-[2-(3-methoxyphenyl)acetyl]hydrazono}methyl)-2-naphthyl 4-methylbenzenesulfonate] fall in the same range of IC50: 5 to 50 µM for the first, 5 to 50 µM for the second.

Compared with `O=C(Cc1ccccc1)N/N=C/c1ccccc1OS(=O)(=O)c1ccc(OC(F)(F)F)cc1` [Compound 142, 2-{(E)-[2-(2-phenylacetyl)hydrazono]methyl}phenyl 4-(trifluoromethoxy)benzenesulfonate], `O=C(Cc1ccccc1)N/N=C/c1ccccc1OS(=O)(=O)c1ccccc1OC(F)(F)F` [Compound 141, 2-{(E)-[2-(2-phenylacetyl)hydrazono]methyl}phenyl 2-(trifluoromethoxy)benzenesulfonate] is higher in IC50: less than 5 µM for the first, greater than 50 µM for the second. The first is the more potent here.

`O=C(Cc1ccc(Cl)c(Cl)c1)N/N=C/c1ccccc1OS(=O)(=O)c1ccc(C(F)(F)F)cc1` [Compound 38, 2-((E)-{2-[2-(3,4-dichlorophenyl)acetyl]hydrazono}methyl)-phenyl 4-(trifluoromethyl)benzenesulfonate] and `O=C(Cc1ccc(Cl)nc1)N/N=C/c1ccccc1OS(=O)(=O)c1ccc(C(F)(F)F)cc1` [Compound 63, 2-((E)-{2-[2-(6-chloropyridin-3-yl)acetyl]hydrazono}methyl)phenyl 4-(trifluoromethyl)benzenesulfonate] cannot be ordered by IC50: less than 5 µM for the first, less than 5 µM for the second.

First: O=C(N/N=C/c1ccccc1OS(=O)(=O)c1ccc(C(F)(F)F)cc1)c1cnccc1C(F)(F)F [Compound 89, 2-[(E)-(2-{[4-(trifluoromethyl)pyridin-3-yl]carbonyl}hydrazono)methyl]phenyl 4-(trifluoromethyl)benzenesulfonate]
Second: O=C(Cc1ccc(C(F)(F)F)cc1)N/N=C/c1ccccc1OS(=O)(=O)c1ccc(C(F)(F)F)cc1 [Compound 34, 2-[(E)-(2-{2-[4-(trifluoromethyl)phenyl]acetyl}hydrazono)-methyl]phenyl 4-(trifluoromethyl)benzenesulfonate]
The IC50 of the first is higher: 5 to 50 µM for the first, less than 5 µM for the second. The second is the more potent here.

First: CCOc1ccccc1C(=O)N/N=C/c1ccccc1OS(=O)(=O)c1ccc(C(F)(F)F)cc1 [Compound 85, 2-{(E)-[2-(2-ethoxybenzoyl)hydrazono]methyl}phenyl4-(trifluoromethyl)benzenesulfonate]
Second: O=C(COc1ccccc1)N/N=C/c1ccccc1OS(=O)(=O)c1ccc(C(F)(F)F)cc1 [Compound 64, 2-{(E)-[2-(2-phenoxyacetyl)hydrazono]methyl}phenyl4-(trifluoromethyl)benzenesulfonate]
The IC50 of the first is higher: greater than 50 µM for the first, less than 5 µM for the second. The second is the more potent here.

First: O=C(N/N=C/c1ccccc1OS(=O)(=O)c1ccc(C(F)(F)F)cc1)OCc1ccccc1 [Compound 75, benzyl (2E)-2-[2-({[4-(trifluoromethyl)phenyl]sulfonyl}oxy)-benzylidene]hydrazinecarboxylate]
Second: O=C(CCCCc1ccccc1)N/N=C/c1ccccc1OS(=O)(=O)c1ccc(C(F)(F)F)cc1 [Compound 47, 2-{(E)-[2-(5-phenylpentanoyl)hydrazono]methyl}phenyl4-(trifluoromethyl)benzenesulfonate]
The IC50 of the first is lower: less than 5 µM for the first, 5 to 50 µM for the second.

`O=C(Cc1cc(F)cc(F)c1F)N/N=C/c1ccccc1OS(=O)(=O)c1ccc(C(F)(F)F)cc1` [Compound 20, 2-((E)-{2-[2-(2,3,5-trifluorophenyl)acetyl]hydrazono}methyl)-phenyl 4-(trifluoromethyl)benzenesulfonate] and `COc1ccc(CC(=O)N/N=C/c2ccccc2OS(=O)(=O)c2ccc(C(F)(F)F)cc2)cc1Br` [Compound 70, 2-((E)-{2-[2-(3-bromo-4-methoxyphenyl)acetyl]hydrazono}methyl)-phenyl 4-(trifluoromethyl)benzenesulfonate] cannot be ordered by IC50: less than 5 µM for the first, less than 5 µM for the second.

Compared with `O=C(Cc1ccccc1)N/N=C/c1ccccc1OS(=O)(=O)c1ccc2ccccc2c1` [Compound 119, 2-{(E)-[2-(2-phenylacetyl)hydrazono]methyl}phenylnaphthalene-2-sulfonate], `O=C(Cc1ccccc1)N/N=C/c1ccccc1OS(=O)(=O)c1ccc(-c2ccccc2)cc1` [Compound 144, 2-{(E)-[2-(2-phenylacetyl)hydrazono]methyl}phenyl1,1′-biphenyl-4-sulfonate] is higher in IC50: less than 5 µM for the first, greater than 50 µM for the second. The first is the more potent here.

First: O=C(Cc1cccc(Cl)c1)N/N=C/c1c(Cl)cccc1OS(=O)(=O)c1ccc(C(F)(F)F)cc1 [Compound 194, 3-chloro-2-((E)-{[(3-chlorophenyl)acetyl]hydrazono}methyl)-phenyl 4-(trifluoromethyl)benzenesulfonate]
Second: C/C(=N\NC(=O)Cc1cccc(Cl)c1)c1ccccc1OS(=O)(=O)c1ccc(C(F)(F)F)cc1 [Compound 81, 2-{(1E)-N-[(3-chlorophenyl)acetyl]ethanehydrazonoyl}-phenyl 4-(trifluoromethyl)benzenesulfonate]
The IC50 of the first is lower: less than 5 µM for the first, greater than 50 µM for the second. The first is the more potent here.

First: O=C(Cc1ccc2ccccc2c1)N/N=C/c1ccccc1OS(=O)(=O)c1ccc(C(F)(F)F)cc1 [Compound 68, 2-((E)-{2-[2-(2-naphthyl)acetyl]hydrazono}methyl)phenyl4-(trifluoromethyl)benzenesulfonate]
Second: CS(=O)(=O)c1ccc(CC(=O)N/N=C/c2ccccc2OS(=O)(=O)c2ccc(C(F)(F)F)cc2)cc1 [Compound 69, 2-[(E)-(2-{2-[4-(methylsulfonyl)phenyl]acetyl}hydrazono)-methyl]phenyl 4-(trifluoromethyl)benzenesulfonate]
The IC50 of the first is lower: less than 5 µM for the first, greater than 50 µM for the second.

`CN(c1ccccc1/C=N/NC(=O)Cc1cccnc1)S(=O)(=O)c1ccc(C(F)(F)F)cc1` [Compound 247, N-methyl-N-(2-{(E)-[(pyridin-3-ylacetyl)hydrazono]methyl}phenyl)-4-(trifluoromethyl)benzenesulfonamide] and `O=C(Cc1cccc(OC(F)(F)F)c1)N/N=C/c1ccccc1OS(=O)(=O)c1ccc(C(F)(F)F)cc1` [Compound 21, 2-[(E)-(2-{2-[3-(trifluoromethoxy)phenyl]acetyl}hydrazono)-methyl]phenyl 4-(trifluoromethyl)benzenesulfonate] cannot be ordered by IC50: less than 5 µM for the first, less than 5 µM for the second.

Going from `O=C(CCc1ccco1)N/N=C/c1ccccc1OS(=O)(=O)c1ccc(C(F)(F)F)cc1` [Compound 54, 2-((E)-{2-[3-(2-furyl)propanoyl]hydrazono}methyl)phenyl4-(trifluoromethyl)benzenesulfonate] to `O=C(N/N=C/c1ccccc1OS(=O)(=O)c1ccc(C(F)(F)F)cc1)C1CCN(Cc2ccccc2)C1=O` (centres unmarked) [Compound 91, 2-((E)-{2-[(1-benzyl-2-oxopyrrolidin-3-yl)carbonyl]hydrazono}methyl)phenyl 4-(trifluoromethyl)benzenesulfonate], the IC50 rises from less than 5 µM to greater than 50 µM. The first is the more potent here.

First: COc1cccc(CC(=O)N/N=C(\C)c2ccccc2OS(=O)(=O)c2ccc(C(F)(F)F)cc2)c1 [Compound 221, 2-{(1E)-N-[(3-methoxyphenyl)acetyl]ethanehydrazonoyl}-phenyl 4-(trifluoromethyl)benzenesulfonate]
Second: COc1cccc(CC(=O)N/N=C/c2c(Br)ccc(OC)c2OS(=O)(=O)c2ccc(C(F)(F)F)cc2)c1 [Compound 169, 3-bromo-6-methoxy-2-((E)-{[(3-methoxyphenyl)acetyl]hydrazono}methyl)-phenyl 4-(trifluoromethyl)benzenesulfonate]
The IC50 of the first is higher: greater than 50 µM for the first, less than 5 µM for the second. The second is the more potent here.

Going from `Cc1ccc(S(=O)(=O)Cc2ccccc2/C=N/NC(=O)Cc2ccccc2)cc1` [Compound 232, N′-[(1E)-(2-{[(4-methylphenyl)sulfonyl]methyl}phenyl)-methylene]-2-phenylacetohydrazide] to `N#Cc1cccc(S(=O)(=O)Oc2ccccc2/C=N/NC(=O)Cc2ccccc2)c1` [Compound 114, 2-{(E)-[2-(2-phenylacetyl)hydrazono]methyl}phenyl 3-cyanobenzenesulfonate], the IC50 rises from less than 5 µM to greater than 50 µM.

same assay, conditions: Hepatitis C virus, Huh-7, 72 h

In the case of `O=C(CC1CC2CCC1C2)N/N=C/c1ccccc1OS(=O)(=O)c1ccc(C(F)(F)F)cc1` (centres unmarked) [Compound 80, 2-{(E)-[2-(2-bicyclo[2.2.1]hept-2-ylacetyl)hydrazono]methyl}phenyl 4-(trifluoromethyl)benzenesulfonate], the IC50 is reported as less than 5 µM.
